Experimental data from patent publication US20140249135A1, “PIM KINASE INHIBITORS AND METHODS OF THEIR USE” (NOVARTIS AG, priority 2007, published 2014).

How the values were obtained:
Format in all cases: biochemical
Pim1 kinase = Pim1 kinase (Homo sapiens, UniProt P11309); test: Pim1 ATP depletion assay; details: Pim1 ATP depletion assay; read-out: IC50 (μM) PIM1;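 note: Luciferase-luciferin luminescence readout of residual ATP after PIM1 transfers phosphate to a peptide substrate, 40 µM ATP added, reaction run to roughly half ATP consumption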
Pim3 kinase = Pim3 kinase (Homo sapiens, UniProt Q86V86); test: Pim3 ATP depletion assay; details: read-out: IC50 (μM) PIM3
Pim2 kinase = Pim2 kinase (Homo sapiens, UniProt Q9P1W9); test: Pim2 ATP depletion assay; details: read-out: IC50 (μM) PIM2;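 note: Luciferase-based luminescent readout of ATP remaining after PIM2 phosphorylates a BAD peptide, final 5 nM enzyme, 4 µM ATP, 10 µM peptide, 2.5% DMSO, run to roughly half ATP consumption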
Sequence of Pim2 kinase (Q9P1W9 whole entry): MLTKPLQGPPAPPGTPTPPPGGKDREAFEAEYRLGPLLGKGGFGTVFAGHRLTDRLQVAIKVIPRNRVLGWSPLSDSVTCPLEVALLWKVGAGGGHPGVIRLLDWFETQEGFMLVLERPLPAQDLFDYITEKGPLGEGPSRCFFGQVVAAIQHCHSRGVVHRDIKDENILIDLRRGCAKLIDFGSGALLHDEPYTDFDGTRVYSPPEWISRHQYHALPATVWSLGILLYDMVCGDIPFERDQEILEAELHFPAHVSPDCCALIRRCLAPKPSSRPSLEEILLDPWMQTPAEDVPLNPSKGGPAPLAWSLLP

Sequence of Pim1 kinase (P11309 whole entry): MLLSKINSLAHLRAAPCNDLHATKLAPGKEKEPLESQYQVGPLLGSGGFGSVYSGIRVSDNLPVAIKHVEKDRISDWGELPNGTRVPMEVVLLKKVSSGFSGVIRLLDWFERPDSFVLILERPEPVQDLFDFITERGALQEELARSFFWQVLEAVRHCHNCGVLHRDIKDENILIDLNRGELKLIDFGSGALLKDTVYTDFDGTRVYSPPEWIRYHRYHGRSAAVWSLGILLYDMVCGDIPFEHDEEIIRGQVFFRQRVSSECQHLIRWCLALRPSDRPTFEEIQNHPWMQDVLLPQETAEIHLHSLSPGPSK

Compound | IC50 (Pim1 kinase) [µM] | IC50 (Pim3 kinase) [µM] | IC50 (Pim2 kinase) [µM]
COc1nc(N)cc(-c2ccncc2NC(=O)c2nc(-c3c(F)cccc3F)ccc2N)n1 [Example 271, 3-Amino-6-(2,6-difluoro-phenyl)-pyridine-2-carboxylic acid [4-(6-amino-2-methoxy-pyrimidin-4-yl)-pyridin-3-yl]-amide] | < 1 | < 1 | < 1
Cc1nc(N)cc(-c2ccncc2NC(=O)c2nc(-c3ccccc3F)ncc2N)n1 [Example 272, 5-Amino-2-(2-fluoro-phenyl)-pyrimidine-4-carboxylic acid [4-(6-amino-2-methyl-pyrimidin-4-yl)-pyridin-3-yl]-amide] | < 1 | < 1 | < 1
Cc1nc(N)cc(-c2ccncc2NC(=O)c2nc(-c3cc(C(=O)NC(C)C)ccc3F)ccc2N)n1 [Example 273, 3-Amino-6-(2-fluoro-5-isopropylcarbamoyl-phenyl)-pyridine-2-carboxylic acid [4-(6-amino-2-methyl-pyrimidin-4-yl)-pyridin-3-yl]-amide] | < 1 | < 1 | < 1
Cc1nc(N)cc(-c2ccncc2NC(=O)c2nc(-c3c(F)cccc3F)ccc2N)n1 [Example 274, 3-Amino-6-(2,6-difluoro-phenyl)-pyridine-2-carboxylic acid [4-(6-amino-2-methyl-pyrimidin-4-yl)-pyridin-3-yl]-amide] | < 1 | < 1 | < 1
Nc1ccc(-c2c(F)cccc2F)nc1C(=O)Nc1cnccc1N1CC[C@@H](F)[C@H](N)C1 [Example 277, 3-Amino-6-(2,6-difluoro-phenyl)-pyridine-2-carboxylic acid (3-amino-4-fluoro-3,4,5,6-tetrahydro-2H-[1,4′]bipyridinyl-3′-yl)-amide] | < 1 | < 1 | < 1
Nc1ccc(-c2c(F)cccc2F)nc1C(=O)Nc1cnccc1N1CC(N)CC(CF)C1 (stereo not drawn) [Example 278, 3-Amino-6-(2,6-difluoro-phenyl)-pyridine-2-carboxylic acid (5-amino-3-fluoromethyl-3,4,5,6-tetrahydro-2H-[1,4′]bi-pyridinyl-3′-yl)-amide] | < 1 | < 1 | < 1
Nc1ccc(C2CCCCC2)nc1C(=O)Nc1cnccc1N1CC(N)CC(C(F)(F)F)C1 (stereo not drawn) [Example 279, 3-Amino-6-cyclohexyl-pyridine-2-carboxylic acid (3-amino-5-trifluoromethyl-3,4,5,6-tetra-hydro-2H-[1,4′]bipyridinyl-3′-yl)-amide] | < 1 | < 1 | < 1
NC1CC(C(F)(F)F)CN(c2ccncc2NC(=O)c2nc(-c3ccccc3F)ccc2F)C1 (stereo not drawn) [Example 280, 3-Fluoro-6-(2-fluoro-phenyl)-pyridine-2-carboxylic acid (3-amino-5-trifluoromethyl-3,4,5,6-tetrahydro-2H-[1,4′]bipyridinyl-3′-yl)-amide] | < 1 | < 1 | < 1
NC1CC(C(F)(F)F)CN(c2ccncc2NC(=O)c2ccc(F)c(-c3ccccc3F)n2)C1 (stereo not drawn) [Example 281, 5-Fluoro-6-(2-fluoro-phenyl)-pyridine-2-carboxylic acid (3-amino-5-trifluoromethyl-3,4,5,6-tetrahydro-2H-[1,4′]bipyridinyl-3′-yl)-amide] | < 1 | < 1 | < 1
Nc1ccc(-c2c(F)cccc2F)nc1C(=O)Nc1cnccc1N1CC(N)CC(C(F)(F)F)C1 (stereo not drawn) [Example 282, 3-Amino-6-(2,6-difluoro-phenyl)-pyridine-2-carboxylic acid (3-amino-5-trifluoromethyl-3,4,5,6-tetrahydro-2H-[1,4′]bi-pyridinyl-3′-yl)-amide] | < 1 | < 1 | < 1
CC1CC(N)CN(c2ccncc2NC(=O)c2nc(C3CCCCC3)ccc2N)C1 (stereo not drawn) [Example 283, 3-Amino-6-cyclohexyl-pyridine-2-carboxylic acid (3-amino-5-methyl-3,4,5,6-tetrahydro-2H-[1,4′]bipyridinyl-3′-yl)-amide] | < 1 | < 1 | < 1
Nc1ccc(C2CCCCC2)nc1C(=O)Nc1cnccc1N1C[C@@H](N)C[C@@H](F)C1 [Example 284, 3-Amino-6-cyclohexyl-pyridine-2-carboxylic acid (3-amino-5-fluoro-3,4,5,6-tetrahydro-2H-[1,4′]bipyridinyl-3′-yl)-amide] | < 1 | < 1 | < 1

The next lines start with the values.

IC50 (Pim1 kinase) [µM] | IC50 (Pim3 kinase) [µM] | IC50 (Pim2 kinase) [µM] | Compound
< 1 | < 1 | < 1 | CO[C@@H]1C[C@H](N)CN(c2ccncc2NC(=O)c2nc(C3CCCCC3)ccc2N)C1 [Example 285, 3-Amino-6-cyclohexyl-pyridine-2-carboxylic acid (3-amino-5-methoxy-3,4,5,6-tetrahydro-2H-[1,4′]bipyridinyl-3′-yl)-amide]
< 1 | < 1 | < 1 | CC1CC(N)CN(c2ccncc2NC(=O)c2nc(-c3ccccc3F)ccc2F)C1 (stereo not drawn) [Example 286, 3-Fluoro-6-(2-fluoro-phenyl)-pyridine-2-carboxylic acid (5-amino-3-methyl-3,4,5,6-tetra-hydro-2H-[1,4′]bipyridinyl-3′-yl)-amide]
< 1 | < 1 | < 1 | CC1CC(N)CN(c2ccncc2NC(=O)c2nc(-c3c(F)cccc3F)ccc2N)C1 (stereo not drawn) [Example 288, 3-Amino-6-(2,6-difluoro-phenyl)-pyridine-2-carboxylic acid (3-amino-5-methyl-3,4,5,6-tetrahydro-2H-[1,4′]bipyridinyl-3′-yl)-amide]
< 1 | < 1 | < 1 | NC1CC(CO)CN(c2ccncc2NC(=O)c2ccc(F)c(-c3ccccc3F)n2)C1 (stereo not drawn) [Example 289, 5-Fluoro-6-(2-fluoro-phenyl)-pyridine-2-carboxylic acid (5-amino-3-hydroxymethyl-3,4,5,6-tetrahydro-2H-[1,4′]bipyridinyl-3′-yl)-amide]
< 1 | < 1 | < 1 | CC(C)NC(=O)c1ccc(F)c(-c2ccc(N)c(C(=O)Nc3cnccc3N3CCCC4(CCNC4)C3)n2)c1 (stereo not drawn) [Example 291, 3-Amino-6-(2-fluoro-5-isopropylcarbamoyl-phenyl)-pyridine-2-carboxylic acid [4-(2,7-diaza-spiro[4.5]dec-7-yl)-pyridin-3-yl]-amide]
< 1 | < 1 | < 1 | Nc1ccc(-c2c(F)cccc2F)nc1C(=O)Nc1cnccc1N1C[C@@H](N)C[C@@H](F)C1 [Example 293, 3-Amino-6-(2,6-difluoro-phenyl)-pyridine-2-carboxylic acid (3-amino-5-fluoro-3,4,5,6-tetrahydro-2H-[1,4′]bipyridinyl-3′-yl)-amide]
< 1 | < 1 | 1 to 10 | Nc1ccc(-c2c(F)cccc2F)nc1C(=O)Nc1cnccc1N1C[C@@H](N)C[C@H](OC(=O)c2ccccc2)C1 [Example 295, Benzoic acid 5-amino-3′-{[3-amino-6-(2,6-difluoro-phenyl)-pyridine-2-carbonyl]-amino}-3,4,5,6-tetrahydro-2H-[1,4′]bi-pyridinyl-3-yl ester]
< 1 | < 1 | < 1 | CC(C)NC(=O)c1ccc(F)c(-c2ccc(N)c(C(=O)Nc3cnccc3N3C[C@@H](N)C[C@H](O)C3)n2)c1 [Example 296, 3-Amino-6-(2-fluoro-5-isopropylcarbamoyl-phenyl)-pyridine-2-carboxylic acid (3-amino-5-hydroxy-3,4,5,6-tetra-hydro-2H-[1,4′]bipyridinyl-3′-yl)-amide]
< 1 | < 1 | < 1 | Nc1ccc(-c2c(F)cccc2F)nc1C(=O)Nc1cnccc1N1C[C@@H](N)C[C@H](O)C1 [Example 297, 3-Amino-6-(2,6-difluoro-phenyl)-pyridine-2-carboxylic acid (3-amino-5-hydroxy-3,4,5,6-tetrahydro-2H-[1,4′]bipyridinyl-3′-yl)-amide]
< 1 | < 1 | < 1 | COC1CCN(c2ccncc2NC(=O)c2nc(-c3cc(C(=O)NC(C)C)ccc3F)ccc2N)CC1N (stereo not drawn) [Example 299, 3-Amino-6-(2-fluoro-5-isopropylcarbamoyl-phenyl)-pyridine-2-carboxylic acid (3-amino-4-methoxy-3,4,5,6-tetra-hydro-2H-[1,4′]bipyridinyl-3′-yl)-amide]
< 1 | < 1 | < 1 | COC1CCN(c2ccncc2NC(=O)c2nc(-c3c(F)cccc3F)ccc2N)CC1N (stereo not drawn) [Example 301, 3-Amino-6-(2,6-difluoro-phenyl)-pyridine-2-carboxylic acid (3-amino-4-methoxy-3,4,5,6-tetrahydro-2H-[1,4′]bi-pyridinyl-3′-yl)-amide]
< 1 | < 1 | < 1 | Nc1ccc(-c2c(F)cccc2F)nc1C(=O)Nc1cnccc1N1CC[C@H]2OC(=O)N[C@H]2C1 [Example 302, 3-Amino-6-(2,6-difluoro-phenyl)-pyridine-2-carboxylic acid [4-(2-oxo-hexahydro-oxazolo[4,5-c]pyridin-5-yl)-pyridin-3-yl]-amide]
< 1 | < 1 | < 1 | Nc1ccc(-c2c(F)cccc2F)nc1C(=O)Nc1cnccc1N1CC[C@@H]2OC(=O)N[C@@H]2C1 [Example 303, 3-Amino-6-(2,6-difluoro-phenyl)-pyridine-2-carboxylic acid [4-(2-oxo-hexahydro-oxazolo[4,5-c]pyridin-5-yl)-pyridin-3-yl]-amide]
< 1 | < 1 | < 1 | Cc1ccc(S(=O)(=O)N2CCCCC2)cc1-c1ccc(N)c(C(=O)Nc2cnccc2N2CCC[C@H](N)C2)n1 [Example 318, 3-amino-6-[2-methyl-5-(piperidine-1-sulfonyl)-phenyl]-pyridine-2-carboxylic acid ((S)-3-amino-3,4,5,6-tetrahydro-2H-[1,4′]bi-pyridinyl-3′-yl)-amide]
